Experiments:
[1] = tested on: BCRP; test: BCRP gene and protein expression in Caco-2 cells (qPCR, WB); format: cell-based, human; details: ENR 5 and 20 μmol/L; 12 and 24 h; concentration- and time-dependent
Experimental: (§1) The relative expressions of CYP3A4, P-gp and BCRP in tissue of broiler and Caco-2 were evaluated via quantitative real-time PCR (RT–qPCR, Bio-Rad, Hercules, CA, USA). […] Relevant cells were treated as indicated and total RNA was extracted from cells and tissue using RNA isolater Total RNA Extraction Reagent (R401-01, Vazyme Biotech Co., Ltd., Nanjing, China) following the manufacturer’s protocols, then reverse-transcribed into cDNA using HiScript II Q Select RT SuperMix for Qpcr (R233-01, Vazyme Biotech Co., Ltd.). The cDNA was determined by quantitative RT-PCR using 2 × AceQ qPCR SYBR Green Master Mix (Q141-02, Vazyme Biotech Co., Ltd.) with the primers (listed in Supplementary Tables S1 and S2). All data were analyzed using the 2−ΔΔCt method.
(§2) These were then collected in a RIPA lysis buffer (P0013B, Beyotime, Shanghai, China) and incubated on a rocker with ice for 30 min. Cell and tissue lysates were centrifuged at 12,000× g/4 °C for 15 min and lysates were boiled at 100 °C for 5 min in 5× SDS Loading Buffer and resolved by SDS-PAGE. […] The immunoreactive bands were visualized on a gel imaging system (Tanon 5200 Multi, Tanon Technology Co., Ltd., Shanghai, China), and the intensities of the immunoreactive bands were quantified using Quantity One.

[2] = Pharmacokinetic studies of ENR and SAL in broilers (plasma, non-compartmental); details: for AUC(0-t) / AUC(0-inf) / Cmax / k el / MRT last / MRT inf / Tmax / half-life: AA broiler, plasma, po, 7.5 mg/kg, n=6, Mean ± SD; for AUC(0-t): AUC0-36h; for AUC(0-t) / AUC(0-inf) / Cmax / k el / MRT last / MRT inf / Tmax: broiler plasma; for AUC(0-inf): AUC0-∞; for k el: Ke; for MRT last: MRT0-36h; for MRT inf: MRT0-∞; for half-life: t1/2, broiler plasma;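 for all read-outs here: plasma drug levels measured by HPLC or LC-MS/MS, with PK parameters obtained through non-compartmental analysis in WinNonlin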
Experimental: Mobile phase compositions were 0.5 mol/L H3PO4-triethylamine (pH = 2.4, phase A) and acetonitrile (phase B) (82:18, v/v) [1, 18].
SAL (Shandong Lukang, Jining, China): The LC-MS/MS assay method for SAL were introduced in the previous research [21]. The separate system of HPLC used 0.1% formic acid solution (phase A) and methanol (phase B) as mobile phase. […] Positive ion scanning mode was used; DP, CE, and CXP are 59.1 V, 65.64 V, and 12 V, respectively.
Plasma sample: Add 0.8 mL of acetonitrile to 0.2 mL of plasma to precipitate proteins. After vortexing the mixture for 5 min, centrifuge at 12,000 rpm for 10 min. Transfer the supernatant to a new 10 mL tube. The supernatant was blown dry with nitrogen at 40 °C, and the pellet was redissolved with 1 mL of methanol. The methanol reconstituted solution was filtered through a 0.2 μm filter.
PK parameters were calculated with WinNonlin software using non-compartmental settings (version 6.4; Pharsight Corporation, Mountain View, CA, USA).

[3] = tested on: CYP3A4; test: Screening of CYP450 enzymes that metabolize SAL and ENR with positive inhibitors (KCZ) in broiler liver microsomes; format: in vitro ADME; details: 50 μmol/L ENR; 0.5 mg/mL broiler liver microsomes; KCZ pre-incubated 30 min at 41 °C, then 4 h
Experimental: (§3) Probe drugs: a volume of 0.2 mL cold acetonitrile were added into 0.05 mL microsome incubation solution, then vortexed for 2 min to extract target compounds. The mixture was centrifuged at 12,000 rpm for 15 min. The supernatant was filtered through a 0.2 μm filter.
Briefly, alpha-naphthoflavone (α-NIF, inhibitor of CYP1A2), sulfafenpyrazole (SUl, CYP2D6), sodium diethyldithiocarbamate (DIE, inhibitor of CYP2E1), omeprazole (OMP, inhibitor of CYP2C45) and ketoconazole (KCZ, inhibitor of CYP3A4) were incubated with 50 μmol/L SAL or the ENR-NADPH system, respectively. The system consisted of 0.5 mg/mL broiler liver microsomes, 0.05 mmol/L Tris-HCl buffer, and 1 mmol/L NADPH.

[4] = tested on: CYP3A4 (broiler); test: Probe substrate (testosterone) assay of CYP3A4 activity in broiler liver microsomes; format: in vitro ADME; details: chicken (broiler), probe testosterone (TS); 100 µmol/L; pre-incubated 30 min at 41 °C; broiler liver microsomes; probe testosterone; read-out: inhibition rate on CYP3A4 (TS metabolism)
Experimental: as §3
(§4) […]. […] Except for testosterone, which was incubated for 30 min, all other probe drugs were incubated for 4 h.

[5] = tested on: broiler CYP3A4; test: as above; format: in vitro ADME
Experimental: as §3, §4

[6] = tested on: P-gp; test: P-gp gene and protein expression in Caco-2 cells (qPCR, WB); format: cell-based, human; details: ENR 5 and 20 μmol/L, SAL 0.5 and 2 μmol/L; 12 or 24 h
Experimental: as §1, §2

[7] = tested on: CYP3A4; test: mRNA (RT-qPCR) and protein (Western blot) expression of hepatic CYP3A4 in treated broilers; format: in vivo
Experimental: as §1
These were then collected in a RIPA lysis buffer (P0013B, Beyotime, Shanghai, China) and incubated on a rocker with ice for 30 min. Cell and tissue lysates were centrifuged at 12,000× g/4 °C for 15 min and lysates were boiled at 100 °C for 5 min in 5× SDS Loading Buffer and resolved by SDS-PAGE. Proteins were transferred into a polyvinylidene fluoride (PVDF) membrane (Bio-Rad) and then incubated with the CYP3A4 Rabbit pAb (Cat#A2544, ABclonal, Wuhan, China), ABCG2 Rabbit pAb (Cat#A5661, ABclonal, Wuhan, China), P-gp Rabbit pAb (Cat#A11747, ABclonal, Wuhan, China) over night, respectively. They were then incubated with the HRP Goat Anti-Rabbit IgG (Cat#AS014, ABclonal, Wuhan, China) for 1.5 h. Immobilon Western Chemiluminescent HRP Substrate (Millipore) was used for protein detection. The immunoreactive bands were visualized on a gel imaging system (Tanon 5200 Multi, Tanon Technology Co., Ltd., Shanghai, China), and the intensities of the immunoreactive bands were quantified using Quantity One.

[8] = SAL (5 d) + ENR: SAL 60 mg/kg mixed feeding 5 days, then ENR 7.5 mg/kg gavage
[9] = SAL + ENR: ENR 7.5 mg/kg + SAL 6.0 mg/kg co-gavage
[10] = abstract, broilers, group not given

CCN1CCN(c2cc3c(cc2F)c(=O)c(C(=O)O)cn3C2CC2)CC1 [ENR, Enrofloxacin]
expression of BCRP in Caco-2 cells [1]: decreased
AUC(0-t) ([2]; ENR (7.5 mg/kg) gavage alone): 12800 ± 3990 ng·h/mL
AUC(0-t) [2, 8]: 15300 ± 1290 ng·h/mL
AUC(0-t) [2, 9]: 16700 ± 1290 ng·h/mL
AUC(0-inf) ([2]; ENR (7.5 mg/kg) gavage alone): 13500 ± 4080 ng·h/mL
AUC(0-inf) [2, 8]: 16000 ± 1450 ng·h/mL
AUC(0-inf) [2, 9]: 17500 ± 1450 ng·h/mL
Cmax ([2]; ENR (7.5 mg/kg) gavage alone): 1490 ± 540 ng/mL
Cmax [2, 8]: 1600 ± 160 ng/mL
Cmax [2, 9]: 1480 ± 160 ng/mL
k el ([2]; ENR (7.5 mg/kg) gavage alone): 1.94e-05 s⁻¹
k el [2, 8]: 2.5e-05 s⁻¹
k el [2, 9]: 2.5e-05 s⁻¹
MRT last ([2]; ENR (7.5 mg/kg) gavage alone): 8.29 ± 1.03 h
MRT last [2, 8]: 8.35 ± 0.52 h
MRT last [2, 9]: 9.06 ± 0.52 h
MRT inf ([2]; ENR (7.5 mg/kg) gavage alone): 10.8 ± 1.76 h
MRT inf [2, 8]: 10.1 ± 0.9 h
MRT inf [2, 9]: 10.6 ± 0.9 h
Tmax ([2]; ENR (7.5 mg/kg) gavage alone): 1.5 ± 0.55 h
Tmax [2, 8]: 2.17 ± 1.03 h
Tmax [2, 9]: 2.67 ± 1.03 h
half-life ([2]; ENR (7.5 mg/kg) gavage alone): 447 ± 103 min
half-life [2, 8]: 488 ± 51.6 min
half-life [2, 9]: 519 ± 32.4 min
increase of area under the curve by SAL [2, 10]: 1.3 times
increase of elimination half-life by SAL [2, 10]: 1.2 times
decrease of ENR metabolic rate after addition of the CYP3A4-specific inhibitor KCZ [3]: 32%
inhibition at 30 min, 100 µmol/L [4]: 32%
effect on CYP3A4 at short pre-incubation ([5]; 0 and 3 min of pre-incubation): induced
dependence of CYP3A4 inhibition on pre-incubation time ([5]; 100 μmol/L, pre-incubated 0, 3, 5, 15, 30 min): time-dependent
dependence of CYP3A4 inhibition on concentration ([5]; 50, 100 and 500 μmol/L): concentration-dependent inhibitory effects
gene and protein expressions of P-gp in Caco-2 cells [6]: significantly decreased
effect of ENR on mRNA and protein levels of CYP3A4 in liver ([7]; ENR (5d) + SAL group contrasted with single SAL group): significantly inhibited
effect of ENR on CYP3A4 gene expression in liver ([7]; ENR + SAL group contrasted with single SAL group): overexpression
effect on protein expression of CYP3A4 in liver ([7]; single gavage (ENR 7.5 mg/kg or SAL 6.0 mg/kg) compared with physiological saline group): induced

— paper PMC9952136 (Antibiotics, 2023)
